# Source: US20230338328A1, “KOJIC ACID DERIVATIVE AS SELECTIVE INHIBITOR OF MITOSIS IN COLORECTAL AND GLIOBLASTOMA CANCER CELLS” (UNIVERSITA' DEGLI STUDI DI CAGLIARI, priority 2020, published 2023)
# Entries after “also recorded” stand apart in the source; their conditions may differ.
# Experiments:
# [1] = system: T98G (human glioblastoma) cells; assay: Mitosis block / morphology of treated cell cultures, T98G; assay type: cell-based; details: for antiproliferative activity (through the inhibition of mitosis): T98G tumor cells; for morphological changes characteristic of block in mitosis (M phase arrest): T98G, 24 hours of culture, FIG. 1: L1 0.74 mM, Colcemid 5.41 mM
# Text: (§1) The commercial embryonic cell line of the human kidney 293T (Banca Biologica and Cell Factory—IRCCS AOU San Martino—IST Genova, catalog code ICLC HTL03003), that of murine macrophages J774 and RAW (ICLC ATL98011 and ATL02001), that of Glioblastoma del human brain T98G (ATCC® CRL-1690™) and that of human epithelial adenocarcinoma Caco-2 (ICL HTL97023), were provided by the National Institute for Research on Cancer c/o CBA (ICLC, Genoa). A minimal essential cell culture medium, MEM (EBSS), with 10% fetal bovine serum (FBS), 100 units per mL penicillin, […] streptomycin, 2 mM glutamine and 1% not essential amino acids was used. To reach the experimental conditions, the confluent cells were isolated using trypsin/EDTA. The cells of the different cell lines (2-3×10^4 cells per cm^2) were seeded in 35 mm cell discs and then incubated at 37° C. in 5% CO2. After 24 hours of growth in complete culture medium, the cells were cultured according to the different experimental conditions foreseen by the project.
# [2] = system: Caco-2 human epithelial adenocarcinoma cells
# Procedure: Treated and untreated control samples of Caco-2 human epithelial adenocarcinoma cells were fixed for 2 hours in 1% paraformaldehyde (para) and 1.25% glutaraldehyde solution in 0.1 M, pH 7.4 sodium cacodylate buffer. After rinsing in the same buffer, the samples were post-fixed in 1% osmium tetroxide for 1 hour and stained in 0.25% uranyl acetate overnight at 4° C.
# The cell cultures were dehydrated in increasing scale of ethanol and xylene, subsequently, to proceed with the embedding in Embed 812 resin, the samples were transferred in inclusion flat molds in an oven at 60° C. for the 24 hours necessary for the polymerization of the resin. From the resulting blocks, 1 μm thick sections were obtained and then stained with toluidine blue for preliminary analysis by light microscopy. Finally, thin sections of 60-90 nm (ultramicrotome 8800 LKB), contrasted with […] and bismuth subnitrate, were observed and photographed with a transmission electron microscope (model JEOL 1400 plus, Tokyo, Japan) operating at 80 kV.
# [3] = system: RAW macrophages; assay: Mitosis block / morphology of treated cell cultures, RAW; assay type: cell-based, murine; details: RAW normal cells; FIG. 1: L1 0.74 mM, Colcemid 5.41 mM
# Text: as §1
# [4] = system: Caco2 (colon adenocarcinoma) cells; assay: Mitosis block / morphology of treated cell cultures, CaCo2; details: for morphological changes characteristic of block in mitosis (M phase arrest): CaCo2, 24 hours of culture, FIG. 1: L1 0.74 mM, Colcemid 5.41 mM; for antiproliferative activity (through the inhibition of mitosis): CaCo2 tumor cells
# Text: as §1
# [5] = system: embryonic kidney cells (293T cells); assay: Mitosis block / morphology of treated cell cultures, 293T; assay type: cell-based, human; details: for morphological changes characteristic of block in mitosis (M phase arrest): 293T normal cells, FIG. 1: L1 0.74 mM, Colcemid 5.41 mM
# Text: as §1
# [6] = system: macrophages (J774 cells)
# Text: as §1
# [7] = system: BAX, BCL2, OH-1, PRDX gene expression in CaCo2 cells; details: 24 hours, L1 0.74 mM (FIG. 6)
# Procedure: (§2) Coding for a protein that may play a role in the control of cell proliferation and in tumor development and progression.
# (§3) The cells, after treatment, were immediately frozen and stored at −80° C. until RNA extraction. The RNA was extracted with the NorDiag ARROW RNA Kit using the company's automated tool. Actin was used as a reference gene. Real-time reverse transcriptase PCR was performed using the Roche Light Cycler System and the SYBR Green I Amplification Kit (Roche Diagnostics). The primers used for the beta actin control gene are as follows: b-actF=5′-[…]-3′, b-actR=5′-[…]-3′, e (Gen-Bank n. NM_001101). While the following oligo nucleotides were used for the genes under consideration:
# (§4) The final reaction volume of 20 μl contained: a final concentration of 3 mM MgCl2, […] of each primer and 2 μl of RNA extract. The real time reaction program includes: an initial reverse transcription at 55° C. for 10 minutes, a denaturation cycle at 95° C. for 30 seconds followed by 35 cycles at 95° for 5 seconds, 53° C. for 10 seconds and 72° C. for 12 seconds, the fluorescence reading was performed in the 72° C. phase
# (§5) The relative gene expression was analyzed using the 2-AACT method [KJ Livak and TD Schmittgen, Analysis of relative gene expression data by Quantitative real-time PCR and 2-AACT method, methods, 2001, 25, 402-408]. Three distinct experimental replicates were performed for each analysis and the quantitative data were expressed as mean. The experiment was repeated if the dispersion of the values of the threshold cycles, compared to the mean, was too high. A standard deviation for each replicate equal to ±1 cut-off cycle was accepted.
# [8] = system: BAX, BCL2, OH-1, PRDX gene expression in 293T cells; details: 24 hours, L1 0.74 mM (FIG. 6)
# Procedure: as §2, §3, §4, §5
# [9] = system: CaCo2 cells
# Procedure: A possible cytotoxic effect (ID50) of the L1 molecule was evaluated in CaCo2 cells by viable staining with trypan blue under different experimental conditions. Cell number (FIG. 3) and viability (FIG. 4) were assessed using the LunaFL cell counter (www.logosbio.com) or by direct observation under the light microscope. Briefly, the cell samples mixed and diluted 1:1 with a 0.2% Trypan Blue solution were counted, after 1-3 minutes, in the counting chamber slide present in the analyzer of the Luna automatic system. […] To obtain an accurate measurement of cell viability, the cell count was repeated at least three times in at least three experiments under the same experimental conditions. The observation under the optical microscope (FIG. 5) was made by adding the Trypan Blue solution to the cells to be observed for a few minutes. The percentage of live cells (trypan blue negative) compared to dead ones (trypan blue positive) in each experimental culture condition was then calculated.
# [10] = Caco2, treatment continued for up to 72 hours
compound,measurement,setting,value
"O=c1cc(CNCCNCc2cc(=O)c(O)co2)occ1O [L1, 2,2′-ethane-1,2-diylbis (iminomethanediyl)This(5-hydroxy-4H-pyran-4-one)]",antiproliferative activity (through the inhibition of mitosis),[1],showed antiproliferative activity
same,morphological changes characteristic of block in mitosis (M phase arrest),[1],showed morphological changes characteristic of mitotic-blocked cells; also recorded: arrest in M phase similar to that induced by Colcemid
same,effect on cell division by ultrastructural analysis (SEM and TEM),"[2]; Caco2, L1 0.74 mM (FIG. 2)",acts specifically on the cell division (mitosis) process
same,nuclear fragmentation (microscopy),"[2]; Caco-2, L1 0.74 mM (FIG. 2A)","occasionally, cells showing fragmentation of their nuclei have been observed"
same,cellular architecture during the interphase (TEM),"[2]; Caco-2, L1 0.74 mM (FIG. 2B)",does not appear to affect the cellular architecture of most cells
same,morphological changes characteristic of block in mitosis (M phase arrest),[3],apparently normal
same,morphological changes characteristic of block in mitosis (M phase arrest),[4],showed morphological changes characteristic of mitotic-blocked cells; also recorded: arrest in M phase similar to that induced by Colcemid
same,antiproliferative activity (through the inhibition of mitosis),[4],showed antiproliferative activity
same,concentration at which all the cells have a modified morphology,[4]; Caco2,2.22 mM
same,treatment time after which half of the Caco2 cells were blocked in mitosis,[4]; Caco2,4.5 h
same,treatment time after which the block of all treated cells was achieved,[4]; Caco2,24 h
same,minimum concentration able to induce evident morphological changes,"[4]; Caco2, after 24 hours of treatment",0.069 mM
same,reduction in the number of cells versus control sample (on average),"[4]; Caco2, control = same cell line cultured without L1",4 times lower
same,cell fate on continued treatment,[4]; [10],begin to die from apoptosis
same,reversibility of mitosis inhibition,[4]; [10],irreversible
same,reversibility of mitosis inhibition,"[4]; Caco2, treatment stopped after 24 hours, medium replaced",reversible
same,morphological changes characteristic of block in mitosis (M phase arrest),[5],apparently normal
same,effect in non-tumor cell line,[5]; embryonic kidney cells (293 cells),no effect
same,effect in non-tumor cell line,[6],no effect
same,BAX gene expression (mRNA),[7],significantly reduces the expression
same,BCL2 gene expression (mRNA),[7],significantly reduces the expression
same,OH-1 gene expression (mRNA),[7],significantly reduces the expression
same,PRDX gene expression (mRNA),[7],significantly reduces the expression
same,BAX gene expression (mRNA),[8],increased expression
same,BCL2 gene expression (mRNA),[8],increased expression
same,OH-1 gene expression (mRNA),[8],increased expression
same,PRDX gene expression (mRNA),[8],completely inhibiting the expression
same,"viability (Trypan Blue, LunaFL)",[9]; L1 0.74 mM (FIG. 4),comparable to that of the respective control
same,number of cells after repeated treatments,[9]; repeated treatments with L1,further reduction in the number of cells
same,number of cells compared to those not treated (LunaFL count),"[9]; treated for 24 hours, L1 0.74 mM (FIG. 3)",clear reduction in the number of CaCo2 cells
"O=c1cc(CNCCCCNCc2cc(=O)c(O)co2)occ1O [L3, 2,2′-[butane-1,4-diylbis (iminomethanediyl)]bis(5-hydroxy-4H-pyran-4-one)]",antiproliferative activity (through the inhibition of mitosis),[1],"not those (L2, L3 and L4) showed antiproliferative activity"
same,antiproliferative activity (through the inhibition of mitosis),[4],"not those (L2, L3 and L4) showed antiproliferative activity"
"O=c1cc(CNCCCNCc2cc(=O)c(O)co2)occ1O [L2, 2,2′-[propane-1,3-diylbis (iminomethanediyl)]bis(5-hydroxy-4H-pyran-4-one)]",antiproliferative activity (through the inhibition of mitosis),[1],"not those (L2, L3 and L4) showed antiproliferative activity"
same,antiproliferative activity (through the inhibition of mitosis),[4],"not those (L2, L3 and L4) showed antiproliferative activity"
"CN[C@H]1CCc2cc(OC)c(OC)c(OC)c2-c2ccc(OC)c(=O)cc21 [Colcemid, desacetylmethylcolchicine, reference compound]",morphological changes characteristic of block in mitosis (M phase arrest),[1],all cell lines respond
same,morphological changes characteristic of block in mitosis (M phase arrest),[1]; listed as colcemide,all cell lines studied showed the morphological changes characteristic of blocked cells in mitosis
same,morphological changes characteristic of block in mitosis (M phase arrest),[3],all cell lines respond
same,morphological changes characteristic of block in mitosis (M phase arrest),[4],all cell lines respond
same,morphological changes characteristic of block in mitosis (M phase arrest),[4]; listed as colcemide,all cell lines studied showed the morphological changes characteristic of blocked cells in mitosis
same,morphological changes characteristic of block in mitosis (M phase arrest),[5],all cell lines respond
"O=c1cc(CNCCN(CCNCc2cc(=O)c(O)co2)CCNCc2cc(=O)c(O)co2)occ1O [L4, 6,6′,6″-(((nitrilotris(ethane-2,1-diyl))tris(azanediyl))tris(methylene))tri s(3-hydroxy-4H-pyran-4-one)]",antiproliferative activity (through the inhibition of mitosis),[1],"not those (L2, L3 and L4) showed antiproliferative activity"
same,antiproliferative activity (through the inhibition of mitosis),[4],"not those (L2, L3 and L4) showed antiproliferative activity"
